Test results as given in ChEMBL document CHEMBL1127385, “Synthesis and diuretic activity of alkyl- and arylguanidine analogs of N,N'-dicyclohexyl-4-morpholinecarboxamidine in rats and dogs” (J Med Chem, 1994).
Each block holds one molecule with its values, some of them ahead of it.

Columns and labels:
Rattus norvegicus [1] = assay: Total electrolytic excretion of sodium in urine of rats after peroral administration of 21.7 uM/Kg of drug; format: ADME, organism-based; conditions: in vivo, po
Rattus norvegicus [2] = assay: Total electrolytic excretion of sodium in urine of rats after peroral administration of 217 uM/Kg of drug; format: ADME, organism-based; conditions: in vivo, po
Rattus norvegicus [3] = assay: Total electrolytic excretion of potassium in urine of rats after peroral administration of 65.2 uM/Kg of drug; format: ADME, organism-based; conditions: in vivo, po
Rattus norvegicus [4] = assay: Total electrolytic excretion of chlorine in urine of rats after peroral administration of 21.7 uM/Kg of drug; format: ADME, organism-based; conditions: in vivo, po
Rattus norvegicus [5] = assay: Total electrolytic excretion of chlorine in urine of rats after peroral administration of 217 uM/Kg of drug; format: ADME, organism-based; conditions: in vivo, po
Rattus norvegicus [6] = assay: Total electrolytic excretion of potassium in urine of rats after peroral administration of 21.7 uM/Kg of drug; format: ADME, organism-based; conditions: in vivo, po
Rattus norvegicus [7] = assay: Total electrolytic excretion of potassium in urine of rats after peroral administration of 217 uM/Kg of drug; format: ADME, organism-based; conditions: in vivo, po
Rattus norvegicus [8] = assay: Total electrolytic excretion of chlorine in urine of rats after peroral administration of 65.2 uM/Kg of drug; format: ADME, organism-based; conditions: in vivo, po
Rattus norvegicus [9] = assay: Tested for the diuretic activity by measuring the urinary volume after peroral administering 65.2 uM/Kg of drug in rats; format: ADME, organism-based, Urine; conditions: in vivo, po
Rattus norvegicus [10] = assay: Total electrolytic excretion of sodium in urine of rats after peroral administration of 65.2 uM/Kg of drug; format: ADME, organism-based; conditions: in vivo, po
Rattus norvegicus [11] = assay: Tested for the diuretic activity by measuring the urinary volume after peroral administering 21.7 uM/Kg of drug in rats; format: ADME, organism-based, Urine; conditions: in vivo, po
Rattus norvegicus [12] = assay: Tested for the diuretic activity by measuring the urinary volume after peroral administering 217 uM/Kg of drug in rats; format: ADME, organism-based, Urine; conditions: in vivo, po
Rattus norvegicus [13] = assay: Ratio of Total electrolytic excretion of sodium and potassium in urine of rats after peroral administration of 21.7 uM/Kg of drug; format: ADME, organism-based; conditions: in vivo, po
Rattus norvegicus [14] = assay: Ratio of Total electrolytic excretion of sodium and potassium in urine of rats after peroral administration of 217 uM/Kg of drug; format: ADME, organism-based; conditions: in vivo, po
Rattus norvegicus [15] = assay: Ratio of Total electrolytic excretion of sodium and potassium in urine of rats after peroral administration of 65.2 uM/Kg of drug; format: ADME, organism-based; conditions: in vivo, po
Rattus norvegicus [16] = assay: Total electrolytic excretion of chlorine in urine of rats after peroral administration of 58.4 uM/Kg of drug; format: ADME, organism-based; conditions: in vivo, po
Rattus norvegicus [17] = assay: Total electrolytic excretion of sodium in urine of rats after peroral administration of 19.5 uM/Kg of drug; format: ADME, organism-based; conditions: in vivo, po
Rattus norvegicus [18] = assay: Total electrolytic excretion of sodium in urine of rats after peroral administration of 195 uM/Kg of drug; format: ADME, organism-based; conditions: in vivo, po
Rattus norvegicus [19] = assay: Total electrolytic excretion of potassium in urine of rats after peroral administration of 58.4 uM/Kg of drug; format: ADME, organism-based; conditions: in vivo, po
Rattus norvegicus [20] = assay: Total electrolytic excretion of chlorine in urine of rats after peroral administration of 195 uM/Kg of drug; format: ADME, organism-based; conditions: in vivo, po
Rattus norvegicus [21] = assay: Total electrolytic excretion of potassium in urine of rats after peroral administration of 19.5 uM/Kg of drug; format: ADME, organism-based; conditions: in vivo, po
Rattus norvegicus [22] = assay: Total electrolytic excretion of potassium in urine of rats after peroral administration of 195 uM/Kg of drug; format: ADME, organism-based; conditions: in vivo, po
Rattus norvegicus [23] = assay: Ratio of Total electrolytic excretion of sodium and potassium in urine of rats after intravenous administration of 19.5 uM/Kg of drug; format: ADME, organism-based; conditions: in vivo
Rattus norvegicus [24] = assay: Tested for the diuretic activity by measuring the urinary volume after peroral administering 58.4 uM/Kg of drug in rats; format: ADME, organism-based, Urine; conditions: in vivo, po
Rattus norvegicus [25] = assay: Total electrolytic excretion of sodium in urine of rats after peroral administration of 58.4 uM/Kg of drug; format: ADME, organism-based; conditions: in vivo, po
Rattus norvegicus [26] = assay: Tested for the diuretic activity by measuring the urinary volume after peroral administering 19.5 uM/Kg of drug in rats; format: ADME, organism-based, Urine; conditions: in vivo, po
Rattus norvegicus [27] = assay: Tested for the diuretic activity by measuring the urinary volume after peroral administering 195 uM/Kg of drug in rats; format: ADME, organism-based, Urine; conditions: in vivo, po
Rattus norvegicus [28] = assay: Ratio of Total electrolytic excretion of sodium and potassium in urine of rats after peroral administration of 19.5 uM/Kg of drug; format: ADME, organism-based; conditions: in vivo, po
Rattus norvegicus [29] = assay: Ratio of Total electrolytic excretion of sodium and potassium in urine of rats after peroral administration of 195 uM/Kg of drug; format: ADME, organism-based; conditions: in vivo, po
Rattus norvegicus [30] = assay: Ratio of Total electrolytic excretion of sodium and potassium in urine of rats after intravenous administration of 5.84 uM/Kg of drug; format: ADME, organism-based; conditions: in vivo
Rattus norvegicus [31] = assay: Ratio of Total electrolytic excretion of sodium and potassium in urine of rats after peroral administration of 58.4 uM/Kg of drug; format: ADME, organism-based; conditions: in vivo, po
Rattus norvegicus [32] = assay: Total electrolytic excretion of chlorine in urine of rats after peroral administration of 19.5 uM/Kg of drug; format: ADME, organism-based; conditions: in vivo, po
Canis familiaris [33] = assay: Total electrolytic excretion of potassium in urine of dogs after peroral administration of 3.40 uM/Kg of drug; format: ADME, organism-based, Canis lupus familiaris; conditions: dog, in vivo, po
Rattus norvegicus [34] = assay: Total electrolytic excretion of potassium in urine of rats after peroral administration of 0 uM/Kg of drug; format: ADME, organism-based; conditions: in vivo, po
Rattus norvegicus [35] = assay: Total electrolytic excretion of potassium in urine of rats after peroral administration of 1.01 uM/Kg of drug; format: ADME, organism-based; conditions: in vivo, po
Rattus norvegicus [36] = assay: Total electrolytic excretion of chlorine in urine of rats after peroral administration of 3.40 uM/Kg of drug; format: ADME, organism-based; conditions: in vivo, po
Rattus norvegicus [37] = assay: Total electrolytic excretion of chlorine in urine of rats after peroral administration of 0 uM/Kg of drug; format: ADME, organism-based; conditions: in vivo, po
Canis familiaris [38] = assay: Total electrolytic excretion of sodium in urine of dogs after peroral administration of 3.40 uM/Kg of drug; format: ADME, organism-based, Canis lupus familiaris; conditions: dog, in vivo, po
Rattus norvegicus [39] = assay: Total electrolytic excretion of sodium in urine of rats after peroral administration of 0 uM/Kg of drug; format: ADME, organism-based; conditions: in vivo, po
Rattus norvegicus [40] = assay: Total electrolytic excretion of sodium in urine of rats after peroral administration of 1.01 uM/Kg of drug; format: ADME, organism-based; conditions: in vivo, po
Rattus norvegicus [41] = assay: Total electrolytic excretion of potassium in urine of rats after peroral administration of 34.0 uM/Kg of drug; format: ADME, organism-based; conditions: in vivo, po
Canis familiaris [42] = assay: Total electrolytic excretion of chlorine in urine of dogs after peroral administration of 3.40 uM/Kg of drug; format: ADME, organism-based, Canis lupus familiaris; conditions: dog, in vivo, po
Rattus norvegicus [43] = assay: Total electrolytic excretion of potassium in urine of rats after peroral administration of 3.40 uM/Kg of drug; format: ADME, organism-based; conditions: in vivo, po
Rattus norvegicus [44] = assay: Total electrolytic excretion of chlorine in urine of rats after peroral administration of 34.0 uM/Kg of drug; format: ADME, organism-based; conditions: in vivo, po
Rattus norvegicus [45] = assay: Tested for the diuretic activity by measuring the urinary volume after peroral administering 34.0 uM/Kg of drug in rats; format: ADME, organism-based, Urine; conditions: in vivo, po
Rattus norvegicus [46] = assay: Total electrolytic excretion of sodium in urine of rats after peroral administration of 34.0 uM/Kg of drug; format: ADME, organism-based; conditions: in vivo, po
Rattus norvegicus [47] = assay: Total electrolytic excretion of sodium in urine of rats after peroral administration of 3.40 uM/Kg of drug; format: ADME, organism-based; conditions: in vivo, po
Rattus norvegicus [48] = assay: Tested for the diuretic activity by measuring the urinary volume after peroral administering 0 uM/Kg of drug in rats; format: ADME, organism-based, Urine; conditions: in vivo, po
Rattus norvegicus [49] = assay: Tested for the diuretic activity by measuring the urinary volume after peroral administering 1.01 uM/Kg of drug in rats; format: ADME, organism-based, Urine; conditions: in vivo, po
Canis familiaris [50] = assay: Tested for the diuretic activity by measuring the urinary volume after peroral administering 10.1 uM/Kg of drug in dogs; format: ADME, organism-based, Canis lupus familiaris, Urine; conditions: dog, in vivo, po
Rattus norvegicus [51] = assay: Tested for the diuretic activity by measuring the urinary volume after peroral administering 10.1 uM/Kg of drug in rats; format: ADME, organism-based, Urine; conditions: in vivo, po
Rattus norvegicus [52] = assay: Tested for the diuretic activity by measuring the urinary volume after peroral administering 3.40 uM/Kg of drug in rats; format: ADME, organism-based, Urine; conditions: in vivo, po
Canis familiaris [53] = assay: Tested for the diuretic activity by measuring the urinary volume after peroral administering 3.40 uM/Kg of drug in dogs; format: ADME, organism-based, Canis lupus familiaris, Urine; conditions: dog, in vivo, po
Canis familiaris [54] = species: Canis familiaris; conditions: dog, in vivo, po
Description: Total electrolytic excretion of potassium in urine of dogs after peroral administration of 10.1 uM/Kg of drug

Rattus norvegicus [55] = species: Rattus norvegicus; conditions: in vivo, po
Description: Total electrolytic excretion of potassium in urine of rats after peroral administration of 10.1 uM/Kg of drug

Excretion Na+ (Rattus norvegicus [1]): 0.96 m equiv
Excretion Na+ (Rattus norvegicus [2]): 1.59 m equiv
Excretion K+ (Rattus norvegicus [3]): 0.26 m equiv
Excretion Cl- (Rattus norvegicus [4]): 1.05 m equiv
Excretion Cl- (Rattus norvegicus [5]): 1.39 m equiv
Excretion K+ (Rattus norvegicus [6]): 0.25 m equiv
Excretion K+ (Rattus norvegicus [7]): 0.15 m equiv
Excretion Cl- (Rattus norvegicus [8]): 1.44 m equiv
V (Rattus norvegicus [9]): 9.3 mL
Excretion Na+ (Rattus norvegicus [10]): 1.55 m equiv
V (Rattus norvegicus [11]): 6.4 mL
V (Rattus norvegicus [12]): 8.7 mL
Ratio (Rattus norvegicus [13]): 3.8
Ratio (Rattus norvegicus [14]): 10.9
Ratio (Rattus norvegicus [15]): 5.9
SMILES: Clc1ccc(CN/C(=N/C2CCCCC2)N2CCOCC2)cc1Cl

Excretion Cl- (Rattus norvegicus [16]): 1.97 m equiv
Excretion Na+ (Rattus norvegicus [17]): 1.51 m equiv
Excretion Na+ (Rattus norvegicus [18]): 1.9 m equiv
Excretion K+ (Rattus norvegicus [19]): 0.27 m equiv
Excretion Cl- (Rattus norvegicus [20]): 1.66 m equiv
Excretion K+ (Rattus norvegicus [21]): 0.23 m equiv
Excretion K+ (Rattus norvegicus [22]): 0.25 m equiv
Ratio (Rattus norvegicus [23]): 6.8
V (Rattus norvegicus [24]): 12.8 mL
Excretion Na+ (Rattus norvegicus [25]): 2.04 m equiv
V (Rattus norvegicus [26]): 10.1 mL
V (Rattus norvegicus [27]): 10.9 mL
Ratio (Rattus norvegicus [28]): 6.6 [Na+]/[K+]
Ratio (Rattus norvegicus [29]): 7.6 [Na+]/[K+]
Ratio (Rattus norvegicus [30]): 8 [Na+]/[K+]
Ratio (Rattus norvegicus [31]): 7.5 [Na+]/[K+]
Excretion Cl- (Rattus norvegicus [32]): 1.52 m equiv
SMILES: C1CN(/C(=N\C23CC4CC(CC(C4)C2)C3)NC23CC4CC(CC(C4)C2)C3)CCO1

Excretion K+ (Canis familiaris [33]): 3.3 m equiv
Excretion K+ (Rattus norvegicus [34]): 0.27 m equiv
Excretion K+ (Rattus norvegicus [35]): 0.32 m equiv
Excretion Cl- (Rattus norvegicus [36]): 1.91 m equiv
Excretion Cl- (Rattus norvegicus [37]): 0.8 m equiv
Excretion Na+ (Canis familiaris [38]): 16.1 m equiv
Excretion Na+ (Rattus norvegicus [39]): 0.82 m equiv
Excretion Na+ (Rattus norvegicus [40]): 1.36 m equiv
Excretion K+ (Rattus norvegicus [41]): 0.4 m equiv
Excretion Cl- (Canis familiaris [42]): 17.3 m equiv
Excretion K+ (Rattus norvegicus [43]): 0.39 m equiv
Excretion Cl- (Rattus norvegicus [44]): 2.17 m equiv
V (Rattus norvegicus [45]): 11.3 mL
Excretion Na+ (Rattus norvegicus [46]): 2.03 m equiv
Excretion Na+ (Rattus norvegicus [47]): 1.79 m equiv
V (Rattus norvegicus [48]): 4.4 mL
V (Rattus norvegicus [49]): 6.8 mL
V (Canis familiaris [50]): 85 mL
V (Rattus norvegicus [51]): 10.2 mL
V (Rattus norvegicus [52]): 10 mL
V (Canis familiaris [53]): 76 mL
Excretion K+ (Canis familiaris [54]): 3.4 m equiv
Excretion K+ (Rattus norvegicus [55]): 0.37 m equiv
SMILES: NS(=O)(=O)c1cc2c(cc1Cl)NCNS2(=O)=O [HYDROCHLOROTHIAZIDE]
